Measurements published in patent US10946094B2, “Adenoassociated viral mediated persistant anti-VEGF therapy for ovarian cancer” (Cornell University, priority 2015, dated 2021).

Key:
[1] = test system: A2780 ovarian cancer cells; experiment: Survival of A2780 tumor-bearing mice pretreated with chemotherapeutic, followed by AAV vector; format: in vivo, Balb/c nude mice; conditions: for Efficacy as single agents at the doses and schedules used: survival of A2780 tumor-bearing mice
Procedure: Xenografts of human ovarian cancer cells were established by administering 5 million A2780 ovarian cancer cells intraperitoneally in 6 to 8 week old female Balb/c nude mice. Survival was analyzed in the mice which were either left untreated, treated with the chemotherapeutic topotecan in combination with an AAV vector, or treated with the chemotherapeutic paclitaxel in combination with an AAV vector. To establish the topotecan-AAVrh. 10BevMab combination treatment model, 2 weeks after injection of the A2780 ovarian cancer cells, the mice were treated with topotecan at 0.625 mg/kg body weight/day, 5 times/week for 3 weeks (see, Delord et al., Ann. Oncol., 16: 1889-1897 (2005)). […] To establish the paclitaxel-AAVrh.10BevMab combination treatment model, 1 week after injection of the A2780 ovarian cancer cells, the mice were treated with paclitaxel at 20 mg/kg body weight, once/week for 2 weeks (see, Vassileva et al., Mol Cancer Ther., 7: 630-637 (2008)).

[2] = test system: recurrent ovarian cancer; conditions: single agent, patients with recurrent ovarian cancer; cited from earlier work

Compound | Efficacy as single agents at the doses and schedules used [1] | Median survival ([1]; topotecan model: 0.625 mg/kg/day, 5 times/week for 3 weeks from week 2, vector at week 5) | Median survival ([1]; paclitaxel model: 20 mg/kg once/week for 2 weeks from week 1, vector at week 3) | Responsive rate [2]
CC[C@@]1(O)C(=O)OCc2c1cc1n(c2=O)Cc2cc3c(CN(C)C)c(O)ccc3nc2-1 [Topotecan, topotecan] | efficacious | 50 days | – | –
CC(=O)O[C@H]1C(=O)[C@@]2(C)[C@H]([C@H](OC(=O)c3ccccc3)[C@]3(O)C[C@H](OC(=O)[C@H](O)[C@@H](NC(=O)c4ccccc4)c4ccccc4)C(C)=C1C3(C)C)[C@]1(OC(C)=O)CO[C@@H]1C[C@@H]2O [paclitaxel] | efficacious | – | 31 days | –
Bevacizumab | – | – | – | 21%
